Measured values taken from patent US20250215030A1, “STAT MODULATORS AND USES THEREOF” (Recludix Pharma, Inc., priority 2022, published 2025).

Tests used:
[1] = target: T1, Recombinant STAT3 protein (STAT3(G127-I722)) (Homo sapiens, UniProt P40763); assay: STAT3 Fluorescence Polarization (FP) Assay; type: binding; settings: STAT3(G127-I722) 25 nM, probe 5-FAM-GpYLPQTV-NH2 2 nM, 45-minute incubation
T1 construct: STAT3(G127-I722)
How it was run: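 STAT3(G127-I722) at 25 nM and 5-FAM-GpYLPQTV-NH2 probe at 2 nM in HEPES pH 7.4 buffer with NaCl, EDTA, Tween 20, DTT; 1% DMSO. FP read after 45 min at room temperature; IC50 by nonlinear regression of mP vs log concentration, binned A ≤100 nM to D >10 μM.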

[2] = target: T2, Recombinant STAT6 protein (STAT6(W123-T658)) (Homo sapiens, UniProt P42226); assay: STAT6 Fluorescence Polarization (FP) Assay; type: binding; settings: STAT6(W123-T658) 250 nM, probe 5-FAM-ApYKPFQDLI-NH2 2 nM, 45-minute incubation
T2 construct: STAT6(W123-T658)
T2 sequence (P42226 123-658): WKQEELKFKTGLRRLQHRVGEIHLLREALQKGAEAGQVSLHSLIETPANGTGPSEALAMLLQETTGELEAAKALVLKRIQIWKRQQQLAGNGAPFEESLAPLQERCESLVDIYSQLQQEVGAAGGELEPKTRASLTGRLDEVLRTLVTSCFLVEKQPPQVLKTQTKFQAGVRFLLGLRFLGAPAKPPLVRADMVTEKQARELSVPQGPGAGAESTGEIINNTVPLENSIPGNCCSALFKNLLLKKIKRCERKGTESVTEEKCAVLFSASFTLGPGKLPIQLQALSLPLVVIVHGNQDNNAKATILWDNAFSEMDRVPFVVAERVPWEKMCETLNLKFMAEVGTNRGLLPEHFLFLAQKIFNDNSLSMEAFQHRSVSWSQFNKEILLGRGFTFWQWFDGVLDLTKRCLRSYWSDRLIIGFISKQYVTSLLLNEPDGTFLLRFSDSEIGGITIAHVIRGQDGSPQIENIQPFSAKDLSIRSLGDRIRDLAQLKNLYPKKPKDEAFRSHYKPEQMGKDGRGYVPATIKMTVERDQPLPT
How it was run: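 STAT6 (W123-T658) at 250 nM mixed with 2 nM 5-FAM-ApYKPFQDLI-NH2 probe in HEPES pH 7.4 buffer with DTT and Tween 20, 1% DMSO final. Polarization read after 45 min at room temperature; IC50 by nonlinear regression of mP versus log concentration, reported in bins A–D.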

T1 sequence (P40763 127-722, species assumed): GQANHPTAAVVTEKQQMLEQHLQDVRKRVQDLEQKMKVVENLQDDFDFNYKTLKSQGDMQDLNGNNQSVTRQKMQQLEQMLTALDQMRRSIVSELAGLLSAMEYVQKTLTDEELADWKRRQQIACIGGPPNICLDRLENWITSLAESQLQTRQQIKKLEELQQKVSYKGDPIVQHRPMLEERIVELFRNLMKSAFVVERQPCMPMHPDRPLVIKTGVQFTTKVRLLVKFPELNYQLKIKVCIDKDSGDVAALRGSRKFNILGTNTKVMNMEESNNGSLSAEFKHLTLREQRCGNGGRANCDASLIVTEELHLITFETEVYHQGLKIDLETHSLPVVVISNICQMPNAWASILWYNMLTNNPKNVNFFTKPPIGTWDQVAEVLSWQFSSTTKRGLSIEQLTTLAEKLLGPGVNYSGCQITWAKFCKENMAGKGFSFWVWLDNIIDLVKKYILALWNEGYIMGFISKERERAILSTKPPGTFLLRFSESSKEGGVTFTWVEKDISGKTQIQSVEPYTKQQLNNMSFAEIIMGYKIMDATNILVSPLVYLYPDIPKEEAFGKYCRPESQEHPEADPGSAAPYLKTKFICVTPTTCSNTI

Compound	IC50 [1]	IC50 [2]
O=C(N[C@H]1C[C@@H]2C[C@@H]2C[C@H]2CC[C@@H](C(=O)N3CC(N4CCS(=O)(=O)CC4)C3)N2C1=O)c1cc2cc(C(F)P(=O)(O)O)ccc2s1 (stereo partly drawn) [Example 301, ((2-(((3S,6S,7aS,8aR,9aR)-3-(3-(1,1-dioxidothiomorpholino)azetidine-1-carbonyl)-5-oxodecahydro-1H-cyclopropa[d]pyrrolo[1,2-a]azocin-6-yl)carbamoyl)benzo[b]thiophen-5-yl)fluoromethyl)phosphonic acid]	0.1 to 1 µM	3 to 30 µM
O=C(N[C@H]1C[C@@H]2C[C@@H]2C[C@H]2CC[C@@H](C(=O)N3CC(Cc4cccc(F)c4)C3)N2C1=O)c1cc2cc(CP(=O)(O)O)ccc2s1 [Example 349, ((2-(((3S,6S,7aS,8aR,9aR)-3-(3-(3-fluorobenzyl)azetidine-1-carbonyl)-5-oxodecahydro-1H-cyclopropa[d]pyrrolo[1,2-a]azocin-6-yl)carbamoyl)benzo[b]thiophen-5-yl)methyl)phosphonic acid]	0.1 to 1 µM	3 to 30 µM
O=C(N[C@H]1C[C@@H]2C[C@@H]2C[C@H]2CC[C@@H](C(=O)N3CC(Oc4ncccn4)C3)N2C1=O)c1cc2cc(CP(=O)(O)O)ccc2s1 [Example 342, ((2-(((3S,6S,7aS,8aR,9aR)-5-oxo-3-(3-(pyrimidin-2-yloxy)azetidine-1-carbonyl)decahydro-1H-cyclopropa[d]pyrrolo[1,2-a]azocin-6-yl)carbamoyl)benzo[b]thiophen-5-yl)methyl)phosphonic acid]	1 to 10 µM	> 30 µM
O=C(N[C@H]1C[C@H]2C[C@H]2C[C@H]2CC[C@@H](C(=O)N3CC(c4ccccc4)C3)N2C1=O)c1cc2cc(C(F)(F)P(=O)(O)O)ccc2s1 [Compound 121]	< 0.1 µM	0.3 to 3 µM
O=C(N[C@H]1C[C@@H]2C[C@@H]2C[C@H]2CC[C@@H](C(=O)N[C@H]3CN(c4ncccn4)C[C@@H]3F)N2C1=O)c1cc2cc(CP(=O)(O)O)ccc2s1 [Example 257, ((2-(((3S,6S,7aS,8aR,9aR)-3-(((3S,4S)-4-fluoro-1-(pyrimidin-2-yl)pyrrolidin-3-yl)carbamoyl)-5-oxodecahydro-1H-cyclopropa[d]pyrrolo[1,2-a]azocin-6-yl)carbamoyl)benzo[b]thiophen-5-yl)methyl)phosphonic acid]	> 10 µM	3 to 30 µM
O=C(N[C@H]1C[C@@H]2C[C@@H]2C[C@H]2CC[C@@H](C(=O)N3CC(c4ncccn4)C3)N2C1=O)c1cc2cc(C(F)P(=O)(O)O)ccc2s1 (stereo partly drawn) [Example 305, (fluoro(2-(((3S,6S,7aS,8aR,9aR)-5-oxo-3-(3-(pyrimidin-2-yl)azetidine-1-carbonyl)decahydro-1H-cyclopropa[d]pyrrolo[1,2-a]azocin-6-yl)carbamoyl)benzo[b]thiophen-5-yl)methyl)phosphonic acid]	0.1 to 1 µM	3 to 30 µM
O=C(N[C@H]1C[C@@H]2C[C@@H]2C[C@H]2CC[C@@H](C(=O)N3CC(c4cc(C(F)F)on4)C3)N2C1=O)c1cc2cc(C(F)P(=O)(O)O)ccc2s1 (stereo partly drawn) [Example 375, ((2-(((3S,6S,7aS,8aR,9aR)-3-(3-(5-(difluoromethyl)isoxazol-3-yl)azetidine-1-carbonyl)-5-oxodecahydro-1H-cyclopropa[d]pyrrolo[1,2-a]azocin-6-yl)carbamoyl)benzo[b]thiophen-5-yl)fluoromethyl)phosphonic acid]	0.1 to 1 µM	3 to 30 µM
O=C(N[C@H]1C[C@@H]2C[C@@H]2C[C@H]2CC[C@@H](C(=O)N3CCC34CCCC4)N2C1=O)c1cc2cc(C(F)P(=O)(O)O)ccc2s1 (stereo partly drawn) [Example 389, (fluoro(2-(((3S,6S,7aS,8aR,9aR)-5-oxo-3-(1-azaspiro[3.4]octane-1-carbonyl)decahydro-1H-cyclopropa[d]pyrrolo[1,2-a]azocin-6-yl)carbamoyl)benzo[b]thiophen-5-yl)methyl)phosphonic acid]	1 to 10 µM	3 to 30 µM
O=C(N[C@H]1C[C@@H]2C[C@@H]2C[C@H]2CC[C@@H](C(=O)N[C@@H]3CCN(c4cccnc4)C3)N2C1=O)c1cc2cc(C(F)(F)P(=O)(O)O)ccc2s1 [Compound 112, (difluoro(2-(((3S,6S,7aS,8aR,9aR)-5-oxo-3-(((R)-1-(pyridin-3-yl)pyrrolidin-3-yl)carbamoyl)decahydro-1H-cyclopropa[d]pyrrolo[1,2-a]azocin-6-yl)carbamoyl)benzo[b]thiophen-5-yl)methyl)phosphonic acid]	< 0.1 µM	0.3 to 3 µM
O=C(N[C@H]1C[C@@H]2C[C@@H]2C[C@H]2CC[C@@H](C(=O)N3CC(c4cnccn4)C3)N2C1=O)c1cc2cc(C(F)(F)P(=O)(O)O)ccc2s1 [Compound 50, (difluoro(2-(((3S,6S,7aS,8aR,9aR)-5-oxo-3-(3-(pyrazin-2-yl)azetidine-1-carbonyl)decahydro-1H-cyclopropa[d]pyrrolo[1,2-a]azocin-6-yl)carbamoyl)benzo[b]thiophen-5-yl)methyl)phosphonic acid]	< 0.1 µM	3 to 30 µM
O=C(N[C@H]1C[C@@H]2C[C@@H]2C[C@H]2CC[C@@H](C(=O)N3CC(Cc4ccc(F)cc4)C3)N2C1=O)c1cc2cc(CP(=O)(O)O)ccc2s1 [Example 369, ((2-(((3S,6S,7aS,8aR,9aR)-3-(3-(4-fluorobenzyl)azetidine-1-carbonyl)-5-oxodecahydro-1H-cyclopropa[d]pyrrolo[1,2-a]azocin-6-yl)carbamoyl)benzo[b]thiophen-5-yl)methyl)phosphonic acid]	0.1 to 1 µM	3 to 30 µM

Other lines, results leading:

IC50 [1]	IC50 [2]	Compound
< 0.1 µM	3 to 30 µM	Cc1cccc(C2CN(C(=O)[C@@H]3CC[C@@H]4C[C@@H]5C[C@@H]5C[C@H](NC(=O)c5cc6cc([C@@H](F)P(=O)(O)O)ccc6s5)C(=O)N43)C2)n1 (single isomer, unassigned) [Example 371]
< 0.1 µM	3 to 30 µM	O=C(N[C@H]1C[C@H]2C[C@H]2C[C@H]2CC[C@@H](C(=O)N3CC(n4ccnc4)C3)N2C1=O)c1cc2cc(C(F)(F)P(=O)(O)O)ccc2s1 [Compound 107, ((2-(((3S,6S,7aR,8aS,9aR)-3-(3-(1H-imidazol-1-yl)azetidine-1-carbonyl)-5-oxodecahydro-1H-cyclopropa[d]pyrrolo[1,2-a]azocin-6-yl)carbamoyl)benzo[b]thiophen-5-yl)difluoromethyl)phosphonic acid]
< 0.1 µM	3 to 30 µM	C[C@@H]1COCCN1C(=O)C1CN(C(=O)[C@@H]2CC[C@@H]3C[C@H]4C[C@H]4C[C@H](NC(=O)c4cc5cc(C(F)(F)P(=O)(O)O)ccc5s4)C(=O)N32)C1 [Compound 13, (difluoro(2-(((3S,6S,7aS,8aR,9aR)-3-(3-((R)-3-methylmorpholine-4-carbonyl)azetidine-1-carbonyl)5-oxodecahydro-1H-cyclopropa[d]pyrrolo[1,2-a]azocin-6-yl)carbamoyl)benzo[b]thiophen-5-yl)methyl)phosphonic acid]
< 0.1 µM	3 to 30 µM	O=C(N[C@H]1C[C@H]2C[C@H]2C[C@H]2CC[C@@H](C(=O)N3CC(c4ncccn4)C3)N2C1=O)c1cc2cc(C(F)(F)P(=O)(O)O)ccc2s1 [Compound 80, (difluoro(2-(((3S,6S,7aR,8aS,9aR)-5-oxo-3-(3-(pyrimidin-2-yl)azetidine-1-carbonyl)decahydro-1H-cyclopropa[d]pyrrolo[1,2-a]azocin-6-yl)carbamoyl)benzo[b]thiophen-5-yl)methyl)phosphonic acid]
< 0.1 µM	3 to 30 µM	C[C@]12CC[C@H](NC(=O)c3cc4cc(C(F)(F)P(=O)(O)O)ccc4s3)C(=O)N3[C@H](CC[C@H]3C(=O)N3CC(c4cccnc4)C3)[C@H]1C2 [Example 234, (difluoro(2-(((3S,6S,8aR,9aS,9bR)-8a-methyl-5-oxo-3-(3-(pyridin-3-yl)azetidine-1-carbonyl)decahydro-1H-cyclopropa[c]pyrrolo[1,2-a]azocin-6-yl)carbamoyl)benzo[b]thiophen-5-yl)methyl)phosphonic acid]
< 0.1 µM	3 to 30 µM	O=C(N[C@H]1C[C@@H]2C[C@@H]2C[C@H]2CC[C@@H](C(=O)N3CC(n4ccnc4)C3)N2C1=O)c1cc2cc(C(F)(F)P(=O)(O)O)ccc2s1 [Compound 94]
< 0.1 µM	3 to 30 µM	O=C(N[C@H]1C[C@@H]2C[C@@H]2C[C@H]2CC[C@@H](C(=O)N3CC(C(=O)N4CCOCC4)C3)N2C1=O)c1cc2cc(C(F)P(=O)(O)O)ccc2s1 (stereo partly drawn) [Compound 18, (fluoro(2-(((3S,6S,7aS,8aR,9aR)-3-(3-(morpholine-4-carbonyl)azetidine-1-carbonyl)-5-oxodecahydro-1H-cyclopropa[d]pyrrolo[1,2-a]azocin-6-yl)carbamoyl)benzo[b]thiophen-5-yl)methyl)phosphonic acid]
